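Each compound was tested at five concentrations against cells in 96-well plates for 48 hours. At the GI50, growth is halved.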 Calls of active or inactive are those of the source. Rule as the data show it: active = GI50 up to about 1.1 µM and inactive = higher.
Legend:
Test in all cases: NCI anticancer screen, dose series, 48 h
UACC-257 = test system: UACC-257
SNB-19 = test system: SNB-19
SF-539 = test system: SF-539
HOP-62 = test system: HOP-62
MDA-MB-435 = test system: MDA-MB-435
U-251 = test system: U-251
EKVX = test system: EKVX
BT-549 = test system: BT-549
RPMI-8226 = test system: RPMI-8226
Hs-578T = test system: Hs-578T
OVCAR-3 = test system: OVCAR-3
NCI-H226 = test system: NCI-H226
MOLT-4 = test system: MOLT-4
K562 = test system: K562
DU-145 = test system: DU-145
SK-MEL-2 = test system: SK-MEL-2
OVCAR-5 = test system: OVCAR-5
PC-3 = test system: PC-3
SW-620 = test system: SW-620
SNB-75 = test system: SNB-75

Measured: GI50

CC(O)C1(CNc2cc(Cl)nc(N)n2)CCC1 (stereo unspecified)
inactive: UACC-257 37.8 µM | SNB-19 > 100 µM | SF-539 > 100 µM | HOP-62 > 100 µM | MDA-MB-435 > 100 µM | U-251 > 100 µM | EKVX 59.3 µM | BT-549 > 100 µM | RPMI-8226 > 100 µM | Hs-578T > 100 µM | OVCAR-3 > 100 µM | NCI-H226 > 100 µM | MOLT-4 > 100 µM | K562 > 100 µM | DU-145 > 100 µM | SK-MEL-2 > 100 µM | OVCAR-5 > 100 µM | PC-3 > 100 µM | SW-620 > 100 µM

COC(=O)C1(CCC(=O)N(C)c2ccccc2)NNC2C(=O)N(c3ccccc3)C(=O)C21 (stereo unspecified)
inactive: UACC-257 > 10 µM | SNB-75 > 10 µM | SNB-19 > 10 µM | SF-539 > 10 µM | HOP-62 > 10 µM | MDA-MB-435 > 10 µM | U-251 > 10 µM | EKVX > 10 µM | BT-549 > 10 µM | RPMI-8226 > 10 µM | Hs-578T > 10 µM | OVCAR-3 > 10 µM | NCI-H226 > 10 µM | DU-145 > 10 µM | SK-MEL-2 > 10 µM | OVCAR-5 > 10 µM | PC-3 > 10 µM | SW-620 > 10 µM

Cc1cc(C)c2c(O)c(S(=O)(=O)c3ccc(Cl)cc3)c(=O)oc2c1
inactive: UACC-257 > 100 µM | SNB-75 45 µM | SNB-19 52.1 µM | SF-539 > 100 µM | HOP-62 61.8 µM | MDA-MB-435 51.8 µM | U-251 37.7 µM | EKVX 22.7 µM | BT-549 67.9 µM | RPMI-8226 60.1 µM | Hs-578T 39.4 µM | OVCAR-3 40 µM | NCI-H226 24.3 µM | K562 55.6 µM | DU-145 84.9 µM | SK-MEL-2 32.7 µM | OVCAR-5 93.1 µM | PC-3 49 µM | SW-620 68.7 µM

CCN(CC)CCNc1nc(N)c(C#N)c(C#N)c1C#N
inactive: UACC-257 > 10 µM | SNB-75 > 10 µM | SNB-19 > 10 µM | SF-539 > 10 µM | HOP-62 > 10 µM | MDA-MB-435 > 10 µM | U-251 > 10 µM | EKVX > 10 µM | BT-549 > 10 µM | RPMI-8226 > 10 µM | Hs-578T > 10 µM | OVCAR-3 > 10 µM | NCI-H226 > 10 µM | MOLT-4 > 10 µM | K562 > 10 µM | DU-145 > 10 µM | OVCAR-5 > 10 µM | PC-3 > 10 µM | SW-620 > 10 µM

O=C(NNc1nc(-c2ccccc2)cs1)Nc1ccccc1
inactive: UACC-257 20.7 µM | SNB-75 23.2 µM | SNB-19 44.1 µM | HOP-62 18.7 µM | MDA-MB-435 22.2 µM | U-251 22.2 µM | EKVX 32 µM | BT-549 25.3 µM | RPMI-8226 13.4 µM | Hs-578T 28.9 µM | OVCAR-3 13.9 µM | NCI-H226 20.4 µM | MOLT-4 27.7 µM | K562 34.4 µM | DU-145 31.8 µM | SK-MEL-2 16.1 µM | OVCAR-5 29.4 µM | PC-3 17.3 µM | SW-620 37.6 µM

O=C1/C(=C2/C(=O)N(c3ccccc3)c3ccccc32)Nc2ccccc21
inactive: UACC-257 37.4 µM | SNB-75 14.9 µM | SNB-19 29.6 µM | HOP-62 31.8 µM | MDA-MB-435 66.8 µM | U-251 31.8 µM | EKVX 24.2 µM | BT-549 45 µM | RPMI-8226 > 100 µM | Hs-578T 58.2 µM | OVCAR-3 52 µM | NCI-H226 27.9 µM | MOLT-4 35.2 µM | K562 42.2 µM | DU-145 27 µM | SK-MEL-2 35.5 µM | OVCAR-5 51.1 µM | PC-3 26.7 µM | SW-620 63.1 µM

Cc1ccc(CC(=O)Nc2ccc(NC(=O)CNC(=O)/C=C/c3ccc(-c4ccccc4)cc3)cc2C(=O)c2ccccc2)cc1
inactive: UACC-257 6.32 µM | SNB-19 4.57 µM | SF-539 2.7 µM | HOP-62 2.55 µM | MDA-MB-435 3.66 µM | U-251 2.77 µM | EKVX 3.47 µM | BT-549 10.9 µM | RPMI-8226 10.4 µM | Hs-578T 4.71 µM | OVCAR-3 4.98 µM | NCI-H226 2.79 µM | MOLT-4 3.5 µM | K562 3.33 µM | DU-145 2.49 µM | SK-MEL-2 13.9 µM | OVCAR-5 4.48 µM | PC-3 1.98 µM | SW-620 4.75 µM

CCCCNC1CCC2(SCCS2)c2[nH]c3ccccc3c21 (stereo unspecified)
inactive: UACC-257 4.09 µM | SNB-75 43.1 µM | SNB-19 29.6 µM | SF-539 13.7 µM | HOP-62 > 53.8 µM | MDA-MB-435 5.21 µM | U-251 43.1 µM | EKVX 37.2 µM | BT-549 23.4 µM | RPMI-8226 1.77 µM | Hs-578T 29.8 µM | OVCAR-3 8.41 µM | NCI-H226 42 µM | MOLT-4 3.97 µM | K562 10.1 µM | DU-145 19.1 µM | OVCAR-5 59.7 µM | PC-3 7.46 µM | SW-620 25.8 µM
